Among the data in a melting point compilation (Tetko et al.; mined from patent text by program, amines drawn as free bases though some values may be those of a salt) are melting point values, retold here.

Molecules are shown by their SMILES.

`CC1(C)CN=C(c2cc3cc(F)cc(NS(=O)(=O)c4cccs4)c3[nH]2)S1` had a melting point of 175 to 176 °C. In the case of `[N-]=[N+]=NCc1cc(C(F)(F)F)cc(C(F)(F)F)c1` it was 30 to 32 °C; in that of `COc1ccc(-c2ccc(N3CCCN(c4ccc(-c5ccc(OC)c(OC)c5)cn4)CC3)nc2)cc1OC`, 190 to 192 °C; in that of `Fc1nc(F)c(F)c(F)n1`, 104 °C. In the case of `CC(C)(C)c1cc(CCc2ccccc2NC(=O)N2CCCCCC2)cc(C(C)(C)C)c1O` it was 136 to 138 °C. The figure for `Cc1cc2ccccc2n1Nc1ccncc1` is 75 to 78 °C; for `O=C1N(Cc2ccc(F)cc2)Cc2cncn2C1(Cc1ccccc1)c1ccc(Br)cc1` (stereo not drawn) it is 166 to 168 °C; for `CCCCC(=O)OC(C)OC(=O)NC1(C(=O)O)CC1` (stereo not drawn) it is 148 to 151 °C.

`Cc1nn(-c2ccc(Cl)nn2)c(C)c1N`: the melting point lay in the range of 165 to 168 °C.

Compound `Cc1c(CC=CN2CCN3c4cc(F)ccc4CCC3C2)cnn1-c1cc(N(C)C)nc(N)n1` (stereo not drawn) showed a melting point of 205 °C. As to `COC(=O)c1ccc(S(C)(=O)=O)c(C=NO)c1Cl`, the melting point was in the range of 126 to 128 °C. Turning to `Cc1ccc(Cl)c(NS(=O)(=O)C2(NC=O)N=CN=N2)c1Cl` (stereo not drawn), the melting point lay within 275 to 279 °C. In the case of `O=C(Nc1ccc(C(=O)N2Cc3cccnc3Nc3ccccc32)c(Cl)c1)c1ccccc1-c1ccccc1`, the melting point is 147 to 165 °C.

The compound `Nc1nc(Sc2ccc(F)cc2)cc(-c2ccccc2)n1` displayed a melting point of 218 to 220 °C. Take `CCCCCCCCCCCC(=O)NCCO`: the melting point lay in the range of 80 to 84 °C.

`Cc1nnc2n1-c1sc(Cl)cc1C(c1ccccc1[N+](=O)[O-])=NC2` yielded a melting point of 210 to 212 °C.

With `O=C(Nc1ccccc1)N1Cc2cccn2-c2ccsc2C1=O`, the melting point came to 176 °C. The figure for `CN(CCCNC(=O)NCCCOc1cccc(CN2CCCCC2)c1)CCN(Cc1ccc(F)cc1)c1ccccn1` is 123 to 125 °C; for `CC(/C=C/c1c(C)sc(C)c1C)=C(F)\C=C\C(C)=C\CO` it is 106 to 108 °C; for `CCc1nc(N)nc(N)c1-c1ccc(N(C)Cc2ccc(C(=O)NC)cc2)c([N+](=O)[O-])c1` it is 235 to 237 °C.

`COC(=O)C1=C(C)NC(CC(=O)N2CCN(C3CCC4CCC3C4)CC2)=C(C(=O)OC)C1c1c(Cl)cccc1Cl` (stereo not drawn) returned a melting point of 197 to 207 °C. The figure for `O=c1cc(-c2ccccc2)[nH]c(=S)[nH]1` is 266 to 267 °C. `C#CCNCC1=Cc2cc(S(N)(=O)=O)sc2S(=O)(=O)N1C(C)C` yielded a melting point of 133 to 135 °C. The figure for `N#Cc1cnn(-c2ccc(Cl)c(Cl)c2Cl)c1N` is 154 to 156 °C. In the case of `CCCCc1nc2c(C)nc(C)cc2n1-c1ccc(CCOC(=O)NS(=O)(=O)c2ccc(C)cc2)cc1` it was 162 °C; in that of `CCCc1ccccc1OCCCOc1ccc2c(=O)cc(C#N)oc2c1`, 85 to 86 °C. In the case of `Cc1ccc2c(=O)nc(-c3ccccn3)sc2c1` it was 225 °C; in that of `COc1c(C(N)=O)oc2c3ccccc3n(C)c12`, 174 to 177 °C. As to `CCOC(=O)c1cn(-c2ccccn2)cn1`, the melting point is 118 to 119 °C. In the case of `COCCCC#Cc1ccccc1S(N)(=O)=O` it was 59 to 61 °C; in that of `COc1cc(C)c([N+](=O)[O-])cc1F`, 95 to 95.5 °C; in that of `CN(C)C(=C[N+](=O)[O-])NCc1cnc(Cl)s1`, 101 to 102 °C. In the case of `CCOc1cc2c(Nc3ccc(OC)cc3)c(C(=O)O)cnc2nc1C` it was 259 to 263 °C; in that of `Cc1nc(C(=O)NCCN2CCOCC2)cc(-c2cccc([N+](=O)[O-])c2)c1C(C)O` (stereo not drawn), 166 to 167 °C; in that of `CS(=O)(=O)N1CCC(C(=O)N(CCCN2CCC(Cc3ccc(F)cc3)CC2)c2ccc(Cl)c(Cl)c2)CC1`, 148 to 150 °C.

As to `CCOC(=O)Nc1ccc(C)c(Cl)c1`, the melting point fell in the range of 51 to 52 °C.

In turn, `CSc1ccc(/C=C2\C=C(CCN(O)C(N)=O)c3ccccc32)cc1` came in with a melting point of 175 to 176 °C.

For the compound `O=C(c1ccc2c(c1)C(=O)N1CCC[C@H]1CO2)N1CCCCC1`, the melting point turned out to be 140 °C. In the case of `Cc1nc(C)c(Cl)c(CNCc2ccc(O)cn2)n1` it was 137 to 138 °C; in that of `CSC(SC)c1cnn(-c2c(Cl)cc(C(F)(F)F)cc2Cl)n1`, 67 to 68 °C; in that of `CCCCCCCCCCCCCCCC(CC)C1OC(=O)C(O)=C1O` (stereo not drawn), 114 to 117 °C. The figure for `CN(C)C(=O)c1cc(-c2ccccc2)c(=O)n2c1-c1cc(Cl)ccc1CN2` is 250 to 252 °C; for `CC(=O)N1CCc2ccc(C(=O)CCC(=O)N3CCC(c4ccc(Cl)cc4)CC3)cc2CC1` it is 110 to 112 °C; for `CC1CN(C(=O)CO)C(C)(C)O1` (stereo not drawn) it is 50 to 53 °C.

Turning to `CCCc1c(OCCCCCCCCOc2ccc(C(=O)c3cccc(C(=O)O)c3)cc2CCC(=O)O)ccc2c1OCCC2=O`, the melting point is 112 to 117 °C. The figure for `COc1ccccc1[C@H](c1cccc2ccccc12)[C@@](C)(C#N)C(=O)N1CCC(c2cccc(C(F)(F)F)c2)CC1` is 123 to 127 °C.

`CC1(C)C(=O)N(c2ccc(C#N)c(C(F)(F)F)c2)C(=S)N1CCCCO` returned a melting point of 78 to 79 °C.

Turning to `FC(F)(F)Oc1ccc(-n2cc(Br)cn2)cc1`, the melting point lay within 63 to 65 °C.

For the compound `O=C1NCCNC1Cc1ccccc1` (stereo not drawn), the melting point fell in the range of 92 to 93 °C. In the case of `Cc1c(Cl)cccc1NC(=O)C(C)(C)C` it was 113 to 114 °C; in that of `CCOCC(COCC)Oc1ccc(/C=C/C(=O)OCC)c(Oc2ncc(C(F)(F)F)cc2Cl)c1`, 66 to 67.5 °C; in that of `C=C(C)COc1c(C)c(CCC(O)CC(=O)CC(=O)OCC)c2c(c1C)CC(C)(C)O2` (stereo not drawn), 53.5 to 55 °C. `COc1ccc(-n2nc(C(C)(C)C)cc2NC(=O)c2cccc3cc(Oc4cc(NCCN(C)C)ncn4)ccc23)cc1`: the melting point was 116 to 117 °C.

With `CCOCc1nc2c(N)nc3cc(N4CCCC4=O)ccc3c2n1CC(C)(C)O`, the melting point lay within 200 to 202 °C. In the case of `CC(C)(/C=C/c1ccc(C(=O)O)cc1)c1ccc2c(c1)C(C)(C)CCC2(C)C` it was 219 to 220 °C; in that of `COC(=O)Nc1nc2cnc3cccnc3c2n1CC(C)C`, 195 to 197 °C; in that of `CNC(=O)Nc1c(C)nn(-c2cc(OC(C)C)c(Cl)cc2F)c1C`, 184 to 185 °C.

The compound `C=Cc1cc(C(C)NC(=O)Nc2ccc(C(C)(C)C)cc2)ccc1NS(=O)(=O)C=C` (stereo not drawn) returned a melting point of 60 to 62 °C. `COc1ccc(C(=O)N2CCN(c3ccc([N+](=O)[O-])c(C=CC(=O)O)c3)CC2)cc1OC` came in with a melting point of 197 to 202 °C. In the case of `CC(=O)Nc1ccc(NC(=O)OCc2ccccc2)c(O)c1` it was 205 °C.

The compound `CC(=O)Nc1c(C(=O)c2ccccn2)[nH]c2cc(Cl)ccc12` gave a melting point of 211 to 212 °C. The compound `O=C1NS(=O)(=O)c2cccc(O)c21` returned a melting point of 228 °C. `CCN(CC)C(=O)CCCC1CCN(Cc2cnc3cc(NC(=O)c4ccc(-c5ccc(F)cc5)cc4)c(C)cc3c2)CC1` displayed a melting point of 181 °C.
